Assay results published in patent EP1127574A1, “Use of chitinous materials for inhibiting cellular nitric oxide production” (Food Industry Research and Development Institute, priority 2000, dated 2001).

Columns and labels:
RAW 264.7 cells [1] = test: Measurement of NO production via nitrite detection (Griess reagents) in IFN-γ and LPS activated macrophages; format: cell-based, mouse; conditions: for effect on NO production (in words): activated RAW 264.7 cells
Method: (§1) Cell culture. NIH/3T3 (mouse embryo fibroblast, CCRC 60008) and RAW 264.7 (mouse monocyte/macrophage, CCRC 60001) cell lines were obtained from Culture Collection and Research Center (CCRC), Taiwan. Both cell lines were cultured in Dulbecco's modified essential medium (DMEM, GIBCO BRL, Rockville, MD) containing 1.5 g/L NaHCO3 supplemented with 10% fetal bovine serum (Hyclone, Logan, UT) and incubated in 5% CO2 at 37°C. Cell cultures were examined for mycoplasma contamination with the fluorescent stain Hoechst 33258 (Hay et al., ATCC Quality Control Methods for Cell Lines, American Type Culture Collection, Manassas, VA, 1992, pp 23-33). All cultures described in the present example were mycoplasma-free.
Collagen/chitin-coated wells. Two mixtures were prepared. A mixture of collagen type I (rat tail, Sigma, St. Louis, MO) was dissolved in 0.1 N acetic acid to produce a 1 mg/ml collagen solution. Chitin was added to 0.1 N acetic acid until a 1 mg/ml mixture was achieved, and the mixture was sonicated for 3 minutes using a Labsonic U sonicator, (Braun Biotech International, Germany). After being autoclaved at 121°C for 15 minutes, the chitin mixture became a slurry of fine wires. Microtiter tissue culture plates (96-well) were rinsed with Dulbecco's phosphate-buffer saline without Ca^+2 and Mg^+2 (D-PBS, GIBCO BRL). Five microliters of collagen solution or different amounts of the chitin mixture were then added to each well. The plates were then air-dried in a laminar flow hood and stored at 4°C for up to a week.
Measurement of NO production via nitrite detection. Nitric oxide (NO) production was indirectly quantified by measuring the accumulation of nitrite (NO2^-) in the culture media using Griess reagents and sodium nitrite as a standard (Green et al., Anal. Biochem. 126:131-138, 1982; and Ignarro et al., Proc. Natl. Acad. Sci. USA 90:8103-8107, 1993). For nitrite assays, RAW 264.7 cells were subcultured in coated 96-well tissue culture plates at 1 x 10^5 cells/well and incubated for 24 hours. The culture media were changed to phenol red-free, serum-free DMEM containing 100 U/ml interferon-γ (IFN-γ, recombinant murine; GIBCO BRL) and 100 ng/ml lipopolysaccharide (LPS, Escherichia coli serotype O128:B12; Sigma). The samples were then tested as described in Rollo et al., J. Leukoc. Biol. 60:397-404, 1996.
To measure the effect of chitin on NO production, cells were subcultured directly in the chitin-coated 96-well tissue culture plates. After overnight incubation, cells became adhered to the bottom of chitin-coated wells. The culture media were removed and replaced with media supplemented with IFN-γ and LPS as described above. After 48 hours incubation, […] of culture supernatants were mixed sequentially with equal volumes of 60 mM sulfanilamide (Sigma) in 3 N HCl and 4 mM N-1-naphthylethylenediamine (Sigma) and then shaken for 5 minutes at room temperature as described in Rollo et al., supra. Nitrite concentration was measured by reading the sample's absorbance at 540 nm using a microplate reader (MRX, Dynex Technologies, Inc., VA).

RAW 264.7 cells [2] = test: Cytotoxicity test (MTT dye), RAW 264.7; format: cell-based, mouse
Method: as §1
Collagen/chitin-coated wells. Two mixtures were prepared. A mixture of collagen type I (rat tail, Sigma, St. Louis, MO) was dissolved in 0.1 N acetic acid to produce a 1 mg/ml collagen solution. […]
Cytotoxicity test. […] Cytotoxicity was measured using the dye 3-(4,5-dimethylthiazol-2-yl)-2,5-diphenyl tetrazolium bromide (MTT; Merck Co., Germany) and following the methods described in Mosmann, J. Immunol. […]
The cytotoxicity associated with chitin and chitosan was evaluated for both mouse embryonic fibroblast NIH/3T3 cells and mouse monocyte-macrophage RAW 264.7 cells. […]

[3] = 10 µg/ml in culture medium, activated RAW 264.7
[4] = Mus musculus, RAW264.7, 48 h, 10 µg/ml in culture medium, activated RAW 264.7, read-out: Nitrite Production as Percentage of Control
[5] = 2 µg/ml in culture medium, activated RAW 264.7
[6] = 10 µg/ml in culture medium, activated RAW 264.7, 2880 min

Compound: CC(=O)N[C@H]1C(O)O[C@H](CO)[C@@H](O)[C@@H]1O (stereo partly shown) [NAGA, N-acetylglucosamine, reference compound]
- Nitrite Production (RAW 264.7 cells [1]; [3]): 66.7 ± 0.9 µM
- activity at 10 µg/mL (RAW 264.7 cells [1]; [4]): 102%
- cytotoxicity (RAW 264.7 cells [2]): not cytotoxic

Compound: CC(=O)N[C@H]1[C@H](O[C@H]2[C@H](O)[C@@H](NC(C)=O)C(O)O[C@@H]2CO)O[C@H](CO)[C@@H](O)[C@@H]1O (stereo partly drawn) [chitobiose, 2-acetamido-2-deoxy-4-O-(2-acetamido-2-deoxy-b-D-glucopyranosyl)-D-glucopyranose]
- Nitrite Production (RAW 264.7 cells [1]; [5]): 64.9 ± 0.8 µM
- Nitrite Production (RAW 264.7 cells [1]; [3]): 64.1 ± 0.9 µM
- activity at 2 µg/mL (RAW 264.7 cells [1]; Mus musculus, RAW264.7, 48 h, 2 µg/ml in culture medium, activated RAW 264.7, read-out: Nitrite Production as Percentage of Control): 98.9%
- activity at 10 µg/mL (RAW 264.7 cells [1]; [4]): 97.7%

Compound: N[C@H]1C(O)O[C@H](CO)[C@@H](O)[C@@H]1O (stereo partly shown) [glucoseamine, glucosamine, reference compound]
- Nitrite Production (RAW 264.7 cells [1]; [3]): 64.3 ± 0.8 µM
- activity at 10 µg/mL (RAW 264.7 cells [1]; [4]): 98%
- cytotoxicity (RAW 264.7 cells [2]): not cytotoxic

Compound: chitohexose
- Nitrite Production (RAW 264.7 cells [1]; [5]): 41.3 ± 0.8 µM
- Nitrite Production as Percentage of Control (RAW 264.7 cells [1]; [5]): 63 Percentage of Control
- Nitrite Production (RAW 264.7 cells [1]; [3]): 35.8 ± 2.9 µM
- Nitrite Production as Percentage of Control (RAW 264.7 cells [1]; [6]): 54.5 Percentage of Control
- effect on NO production (in words) (RAW 264.7 cells [1]): did substantially decrease NO production

Compound: chitopentose
- Nitrite Production (RAW 264.7 cells [1]; [5]): 47.0 ± 0.5 µM
- Nitrite Production as Percentage of Control (RAW 264.7 cells [1]; [5]): 70.6 Percentage of Control
- Nitrite Production (RAW 264.7 cells [1]; [3]): 42.7 ± 1.2 µM
- Nitrite Production as Percentage of Control (RAW 264.7 cells [1]; [6]): 65.1 Percentage of Control
- effect on NO production (in words) (RAW 264.7 cells [1]): did substantially decrease NO production

Compound: chitotetraose
- Nitrite Production (RAW 264.7 cells [1]; [5]): 63.4 ± 0.5 µM
- Nitrite Production as Percentage of Control (RAW 264.7 cells [1]; [5]): 96.6 Percentage of Control
- Nitrite Production (RAW 264.7 cells [1]; [3]): 61.3 ± 0.6 µM
- Nitrite Production as Percentage of Control (RAW 264.7 cells [1]; [6]): 93.4 Percentage of Control

Compound: chitotriose
- Nitrite Production (RAW 264.7 cells [1]; [5]): 61.5 ± 0.9 µM
- Nitrite Production as Percentage of Control (RAW 264.7 cells [1]; [5]): 93.8 Percentage of Control
- Nitrite Production (RAW 264.7 cells [1]; [3]): 61.1 ± 0.2 µM
- Nitrite Production as Percentage of Control (RAW 264.7 cells [1]; [6]): 93.1 Percentage of Control
